Consider one substance from US20060008891A1, “Cathepsin G-related peptides as modulators of formylpeptide receptors (FPR)” (The Government of USA as repersented by the Secretary, …, priority 2004, published 2006).

The test system of one test is PKC isozymes. As to the kind of experiment: PKC translocation in parental RBL cells. The format is cell-based, rat. The settings on record: 100 nM fMLF, 10 μg/ml CaG or PMA 500 nM, 37° C. 10 min.
The next test deals with parental RBL cells. As to the kind of experiment: Chemotaxis assay, parental RBL cells. The format is cell-based, rat. The settings on record: parental RBL cells without FPR. As for the experimental part:
(§1) Human PBMC were isolated from leukopacks obtained through the courtesy of Transfusion Medicine Department, National Institutes of Health Clinical Center (Bethesda, Md.) by Ficoll-Hypaque density gradient centrifugation. Monocytes were purified from human PBMC by Percoll gradient to yield>90% pure preparations. […] H. Ali and R. Snyderman, Duke University (Durham, N.C.) and maintained in the presence of 0.8 mg/ml geneticin (G418, Life Technologies, Rockville, Md.) in DMEM supplemented with 10% FCS. B. Chemotaxis assay Migration of phagocytes and ETFR cells was assessed using a 48-well microchemotaxis chamber (Neuroprobe, Cabin John, Md.) as previously described (Hu et al. (2001) J Leukoc Biol 70 15512). Briefly, different concentrations of stimulants were placed in the wells of the lower compartment of the chamber, and 50 μl cells (1.5×10^6 cells/ml for monocyte and neutrophil, 1×10^6 ETFR cells/ml) were added to the wells of the upper compartment. The lower and upper compartments were separated by either a 5-μm (for monocyte) or a 10-μm pore size, collagen-coated (for ETFR cells) polycarbonate filter (Osmonics, Livermore, Calif.). After incubation at 37° C. in humidified air with 5% CO2 (60 min for neutrophils, 90 min for monocytes, 4.5 h for ETFR cells), the filter was removed and stained, and the cells migrating across the filter were counted with light microscopy. […]

The test system of the next test is neutrophils. As to the kind of experiment: Chemotaxis assay, neutrophils. The class given is cell-based, human. The settings on record: neutrophils. The method, then:
Human PBMC were isolated from leukopacks obtained through the courtesy of Transfusion Medicine Department, National Institutes of Health Clinical Center (Bethesda, Md.) by Ficoll-Hypaque density gradient centrifugation. Monocytes were purified from human PBMC by Percoll gradient to yield>90% pure preparations. […] H. Ali and R. Snyderman, Duke University (Durham, N.C.) and maintained in the presence of 0.8 mg/ml geneticin (G418, Life Technologies, Rockville, Md.) in DMEM supplemented with 10% FCS. B. Chemotaxis assay Migration of phagocytes and ETFR cells was assessed using a 48-well microchemotaxis chamber (Neuroprobe, Cabin John, Md.) as previously described (Hu et al. (2001) J Leukoc Biol 70 15512). Briefly, different concentrations of stimulants were placed in the wells of the lower compartment of the chamber, and 50 μl cells (1.5×10^6 cells/ml for monocyte and neutrophil, 1×10^6 ETFR cells/ml) were added to the wells of the upper compartment. The lower and upper compartments were separated by either a 5-μm (for monocyte) or a 10-μm pore size, collagen-coated (for ETFR cells) polycarbonate filter (Osmonics, Livermore, Calif.). After incubation at 37° C. in humidified air with 5% CO2 (60 min for neutrophils, 90 min for monocytes, 4.5 h for ETFR cells), the filter was removed and stained, and the cells migrating across the filter were counted with light microscopy. The results are presented as the mean number of cells (±SD) in three high power fields (HPFs). For analysis of cross-desensitization, cells were pretreated with indicated reagents for 1 h at 37° C. After thorough washing with cold medium (RPMI 1640, 1% BSA), the cells were resuspended and assayed. To measure the effect of various signaling inhibitors, unless otherwise indicated, the cells were pre-incubated at 37° C. for 60 min with the inhibitors, and were then added to the upper wells of the chemotaxis chamber.

A further test has as its system ERK1/2. Description: Phosphorylation of ERK1/2 in parental RBL cells. The format is cell-based, rat.
A further test has as its system PKCζ. As to the kind of experiment: PKCζ translocation in ETFR cells (confocal microscopy). The class given is cell-based, rat. Particulars: 100 nM fMLF, 10 μg/ml CaG or PMA 500 nM, 37° C. 10 min. As for the experimental part:
ETFR cells were seeded on coverslips and cultured overnight in DMEM containing 1% FCS at 37° C. After further culture in FCS-free DMEM for 3 h, cells were treated with stimulants for indicated time periods at 37° C. and were then fixed in 4% paraformaldehyde for 5 min at room temperature. The cells were permeabilized with 0.2% Tween 20 for 30 min at 4° C. and the reaction was blocked with 5% goat normal serum for 15 min at room temperature. The rabbit anti-PKCα/β, δ, and ξ, antibodies (1:1000 in DPBS) were applied separately for 1 h at room temperature. After three rinses with DPBS, the cells were stained with FITC-labeled goat anti-rabbit secondary antibody (PharMingen, 1:1000 in DPBS) for 1 h at room temperature. The coverslips were mounted with an anti-fade, water-based mounting medium with Propidium Iodide (PI) (Vector Lab, Burlingamem, Calif.) and analyzed under a laser scanning confocal fluorescence microscope (Zeiss LSM510 NLO Meta, Jena, Germany). Excitation wavelengths 488 (for FITC) and 568 (for PI) nm were used to generate fluorescence emission in green and red, respectively.

The subject of another test is CHI-39. Description: Chemotaxis of HEK293 cells transfected with chimeric receptor CHI-39. The class given is cell-based, human. The settings on record: N-terminus of FPR replaced by FPRL1 sequences. The method, then:
as §1, with “Briefly, different concentrations of stimulants were placed in the wells of the lower compartment of the chamber, and 50 μl cells (1.5×10^6 cells/ml for monocyte and neutrophil, 1×10^6 ETFR cells/ml) were added to the wells of the upper compartment. The lower and upper compartments were separated by either a 5-μm (for monocyte) or a 10-μm pore size, collagen-coated (for ETFR cells) polycarbonate filter (Osmonics, Livermore, Calif.).” left out
The chimeric receptor was stably transfected into HEK293 cells (a human embryo kidney cell line) and the chemotactic activity of CaG on the transfected cells was measured and compared to the chemotactic activity of CaG on […] cells transfected with wild type FPR, using the assay for chemotaxis described in Example IB. […]

On to “CaG: Cathepsin G, serine protease purified from neutrophil granules, purchased from Athens Research & Technology”, for which the “PKC translocation in parental RBL cells” value in the test with PKC isozymes was “Neither CaG nor fMLF stimulated PKC translocation in parental RBL cells”. Further, the “migration of parental RBL cells” value with parental RBL cells is “Neither CaG nor fMLF induced migration of parental RBL cells”. In addition, in the test on neutrophils, the “concentration range potently chemotactic” value is 4 to 400 nM. The “phosphorylation of ERK1/2 in parental RBL cells” value in the test on ERK1/2 is “did not show any increased phosphorylation of ERK1/2”. For the same substance, the “translocation of PKCζ” value in the test with PKCζ is “a substantial proportion of PKCξ translocated to the cell membrane region”. Besides, the “chemotactic activity on CHI-39-transfected HEK293 cells” value with CHI-39 is “exhibit robust migration in response to CaG”.
